Patent US6914045B2, “Glycopeptide antibiotics” (Wyeth Holdings Corporation, priority 2001, dated 2005)

Tests used:
Assay in all cases: in vitro antibacterial evaluation, MIC by broth dilution
Assay type in all cases: cell-based
Enterococcus sp. = conditions: broth dilution, 18 hours at 35° C.; for MIC Enterococcus faecalis (GC 2242): strain GC 2242; for MIC Enterococcus faecalis (GC 2691): strain GC 2691; for MIC Enterococcus faecalis (GC 3059): strain GC 3059; for MIC Enterococcus faecalis (GC 4552): strain GC 4552
Method in brief: (§1)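 Inoculum 5×10^5 CFU/mL; concentrations 64 to 0.06 μg/mL; MIC defined as lowest inhibitory level. Conducted by broth dilution under NCCLS guidelines.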

Escherichia coli = conditions: 18 hours at 35° C.
Method in brief: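 Step 1: dilute antibiotic across 64-0.06 μg/mL in Muller-Hinton II […]. Step 2: inoculate at 5×10^5 CFU/mL.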

Staphylococcus sp. = conditions: broth dilution, 18 hours at 35° C.
Method in brief: as §1

Streptococcus sp. = conditions: broth dilution, 18 hours at 35° C.; for MIC Streptococcus pneumoniae (ATCC 6301): strain ATCC 6301; for MIC Streptococcus pneumoniae (GC 1894): strain GC 1894; for MIC Streptococcus pyogenes (GC 4563): strain GC 4563; for MIC Streptococcus agalactiae (GC 4564): strain GC 4564; for MIC Streptococcus pneumoniae (GC 4565): strain GC 4565
Method in brief: as §1

[1] = Enterococcus faecalis (ATCC 29212)
[2] = Enterococcus faecalis (GC 4553)
[3] = Enterococcus faecalis (GC 4554)
[4] = Enterococcus faecalis (GC 6189)

CCC(C)C(=O)OC1C(CO)OC(OC2C(CO)OC(Oc3ccc(CC4NC(=O)C(C(C)c5ccccc5)NC(=O)CNC(=O)C(CO)NC(=O)C(C(O)C5CNC(=N)N5C5OC(CO)C(O)C(O)C5O)NC(=O)C(C(O)C5CNC(=N)N5)NC4=O)cc3)C(O)C2O)C(O)C1O (stereo not drawn) [Example 278c, Cyclo[glycyl-β-methylphenylalanyl-O-[4-O-[4-O-(2-methylbutanoyl)hexopyranosyl]hexopyranosyl]tyrosyl-3-(2-iminoimidazolidin-4-yl)seryl-3-(3-hexopyranosyl-2-iminoimidazolidin-4-yl)serylseryl]]
2 µg/mL: MIC Escherichia coli (GC 4560) (Escherichia coli) | MIC Coagulase Negative Staphylococcus (GC 4548) (Staphylococcus sp.) | MIC Coagulase Negative Staphylococcus (GC 4549) (Staphylococcus sp.) | MIC Coagulase Negative Staphylococcus (GC 6257) (Staphylococcus sp.) | MIC Staphylococcus aureus (GC 3051) (Staphylococcus sp.) | MIC Staphylococcus haemolyticus (GC 4546) (Staphylococcus sp.) | MIC Staphylococcus aureus (GC 3051) (Staphylococcus sp.; strain GC 3051) | MIC Staphylococcus haemolyticus (GC 4546) (Staphylococcus sp.; strain GC 4546) | MIC Coagulase Negative Staphylococcus (GC 4548) (Staphylococcus sp.; strain GC 4548) | MIC Coagulase Negative Staphylococcus (GC 4549) (Staphylococcus sp.; strain GC 4549) | MIC Coagulase Negative Staphylococcus (GC 6257) (Staphylococcus sp.; strain GC 6257) | MIC Streptococcus agalactiae (GC 4564) (Streptococcus sp.)
4 µg/mL: MIC Coagulase Negative Staphylococcus (GC 4547) (Staphylococcus sp.) | MIC Staphylococcus aureus (ATCC 29213) (Staphylococcus sp.) | MIC Staphylococcus aureus (GC 4541) (Staphylococcus sp.) | MIC Staphylococcus aureus (GC 4542) (Staphylococcus sp.) | MIC Staphylococcus aureus (GC 4544) (Staphylococcus sp.) | MIC Staphylococcus aureus (GC 4545) (Staphylococcus sp.) | MIC Staphylococcus aureus-SMITH (GC 4543) (Staphylococcus sp.) | MIC Staphylococcus aureus (ATCC 29213) (Staphylococcus sp.; strain ATCC 29213) | MIC Staphylococcus aureus (GC 4541) (Staphylococcus sp.; strain GC 4541) | MIC Staphylococcus aureus (GC 4542) (Staphylococcus sp.; strain GC 4542) | MIC Staphylococcus aureus (GC 4544) (Staphylococcus sp.; strain GC 4544) | MIC Staphylococcus aureus (GC 4545) (Staphylococcus sp.; strain GC 4545) | MIC Coagulase Negative Staphylococcus (GC 4547) (Staphylococcus sp.; strain GC 4547) | MIC Staphylococcus aureus-SMITH (GC 4543) (Staphylococcus sp.; strain SMITH GC 4543)
16 µg/mL: MIC Enterococcus faecalis (GC 2242) (Enterococcus sp.)
>64 µg/mL: MIC Escherichia coli (ATCC 25922) (Escherichia coli) | MIC Escherichia coli (GC 4559) (Escherichia coli)
1 µg/mL: MIC Streptococcus pneumoniae (ATCC 6301) (Streptococcus sp.) | MIC Streptococcus pyogenes (GC 4563) (Streptococcus sp.) | MIC Streptococcus pneumoniae (GC 4565) (Streptococcus sp.)
8 µg/mL: MIC Enterococcus faecium (GC 4557) (Enterococcus sp.; Enterococcus faecium (GC 4557)) | MIC Enterococcus faecium (GC 4557) (Enterococcus sp.; strain GC 4557) | MIC Coagulase Negative Staphylococcus (GC 4551) (Staphylococcus sp.) | MIC Staphylococcus aureus (GC 1131) (Staphylococcus sp.) | MIC Staphylococcus aureus (GC 3053) (Staphylococcus sp.) | MIC Staphylococcus aureus (GC 1131) (Staphylococcus sp.; strain GC 1131) | MIC Staphylococcus aureus (GC 3053) (Staphylococcus sp.; strain GC 3053) | MIC Coagulase Negative Staphylococcus (GC 4551) (Staphylococcus sp.; strain GC 4551)
0.5 µg/mL: MIC Streptococcus pneumoniae (GC 1894) (Streptococcus sp.)
32 µg/mL: MIC Enterococcus avium (GC 4558) (Enterococcus sp.; Enterococcus avium (GC 4558)) | MIC Enterococcus faecalis (ATCC 29212) (Enterococcus sp.; [1]) | MIC Enterococcus faecalis (GC 4553) (Enterococcus sp.; [2]) | MIC Enterococcus faecalis (GC 4554) (Enterococcus sp.; [3]) | MIC Enterococcus faecalis (GC 6189) (Enterococcus sp.; [4]) | MIC Enterococcus faecium (GC 2243) (Enterococcus sp.; Enterococcus faecium (GC 2243)) | MIC Enterococcus faecium (GC 4556) (Enterococcus sp.; Enterococcus faecium (GC 4556)) | MIC Enterococcus faecalis (ATCC 29212) (Enterococcus sp.; strain ATCC 29212) | MIC Enterococcus faecium (GC 2243) (Enterococcus sp.; strain GC 2243) | MIC Enterococcus faecalis (GC 2691) (Enterococcus sp.) | MIC Enterococcus faecalis (GC 3059) (Enterococcus sp.) | MIC Enterococcus faecalis (GC 4552) (Enterococcus sp.) | MIC Enterococcus faecalis (GC 4553) (Enterococcus sp.; strain GC 4553) | MIC Enterococcus faecalis (GC 4554) (Enterococcus sp.; strain GC 4554) | MIC Enterococcus faecium (GC 4556) (Enterococcus sp.; strain GC 4556) | MIC Enterococcus avium (GC 4558) (Enterococcus sp.; strain GC 4558) | MIC Enterococcus faecalis (GC 6189) (Enterococcus sp.; strain GC 6189)

CC=C(C)C(=O)OC1C(CO)OC(OC2C(CO)OC(Oc3ccc(CC4NC(=O)C(C(C)c5ccccc5)NC(=O)CNC(=O)C(CO)NC(=O)C(C(O)C5CNC(=N)N5C5OC(CO)C(O)C(O)C5O)NC(=O)C(C(O)C5CNC(=N)N5)NC4=O)cc3)C(O)C2O)C(O)C1O (stereo not drawn) [Example 278b, Cyclo[glycyl-β-methylphenylalanyl-O-[4-O-[4-O-(2-methylbut-2-enoyl)hexopyranosyl]-hexopyranosyl]tyrosyl-3-(2-iminoimidazolidin-4-yl)seryl-3-(3-hexopyranosyl-2-imino-imidazolidin-4-yl)serylseryl]]
2 µg/mL: MIC Coagulase Negative Staphylococcus (GC 4549) (Staphylococcus sp.) | MIC Coagulase Negative Staphylococcus (GC 6257) (Staphylococcus sp.) | MIC Coagulase Negative Staphylococcus (GC 4549) (Staphylococcus sp.; strain GC 4549) | MIC Coagulase Negative Staphylococcus (GC 6257) (Staphylococcus sp.; strain GC 6257) | MIC Streptococcus pyogenes (GC 4563) (Streptococcus sp.) | MIC Streptococcus pneumoniae (GC 4565) (Streptococcus sp.)
>64 µg/mL: MIC Escherichia coli (ATCC 25922) (Escherichia coli) | MIC Escherichia coli (GC 4559) (Escherichia coli)
32 µg/mL: MIC Enterococcus avium (GC 4558) (Enterococcus sp.; Enterococcus avium (GC 4558)) | MIC Enterococcus faecalis (ATCC 29212) (Enterococcus sp.; [1]) | MIC Enterococcus faecalis (GC 4553) (Enterococcus sp.; [2]) | MIC Enterococcus faecalis (GC 4554) (Enterococcus sp.; [3]) | MIC Enterococcus faecalis (GC 6189) (Enterococcus sp.; [4]) | MIC Enterococcus faecium (GC 2243) (Enterococcus sp.; Enterococcus faecium (GC 2243)) | MIC Enterococcus faecium (GC 4556) (Enterococcus sp.; Enterococcus faecium (GC 4556)) | MIC Enterococcus faecalis (ATCC 29212) (Enterococcus sp.; strain ATCC 29212) | MIC Enterococcus faecalis (GC 2242) (Enterococcus sp.) | MIC Enterococcus faecium (GC 2243) (Enterococcus sp.; strain GC 2243) | MIC Enterococcus faecalis (GC 2691) (Enterococcus sp.) | MIC Enterococcus faecalis (GC 4552) (Enterococcus sp.) | MIC Enterococcus faecalis (GC 4553) (Enterococcus sp.; strain GC 4553) | MIC Enterococcus faecalis (GC 4554) (Enterococcus sp.; strain GC 4554) | MIC Enterococcus faecium (GC 4556) (Enterococcus sp.; strain GC 4556) | MIC Enterococcus avium (GC 4558) (Enterococcus sp.; strain GC 4558) | MIC Enterococcus faecalis (GC 6189) (Enterococcus sp.; strain GC 6189)
8 µg/mL: MIC Enterococcus faecium (GC 4557) (Enterococcus sp.; Enterococcus faecium (GC 4557)) | MIC Enterococcus faecium (GC 4557) (Enterococcus sp.; strain GC 4557) | MIC Coagulase Negative Staphylococcus (GC 4551) (Staphylococcus sp.) | MIC Staphylococcus aureus (ATCC 29213) (Staphylococcus sp.) | MIC Staphylococcus aureus (GC 1131) (Staphylococcus sp.) | MIC Staphylococcus aureus (GC 3053) (Staphylococcus sp.) | MIC Staphylococcus aureus (GC 4541) (Staphylococcus sp.) | MIC Staphylococcus aureus (GC 4542) (Staphylococcus sp.) | MIC Staphylococcus aureus (GC 4544) (Staphylococcus sp.) | MIC Staphylococcus aureus-SMITH (GC 4543) (Staphylococcus sp.) | MIC Staphylococcus aureus (ATCC 29213) (Staphylococcus sp.; strain ATCC 29213) | MIC Staphylococcus aureus (GC 1131) (Staphylococcus sp.; strain GC 1131) | MIC Staphylococcus aureus (GC 3053) (Staphylococcus sp.; strain GC 3053) | MIC Staphylococcus aureus (GC 4541) (Staphylococcus sp.; strain GC 4541) | MIC Staphylococcus aureus (GC 4542) (Staphylococcus sp.; strain GC 4542) | MIC Staphylococcus aureus (GC 4544) (Staphylococcus sp.; strain GC 4544) | MIC Coagulase Negative Staphylococcus (GC 4551) (Staphylococcus sp.; strain GC 4551) | MIC Staphylococcus aureus-SMITH (GC 4543) (Staphylococcus sp.; strain SMITH GC 4543)
4 µg/mL: MIC Escherichia coli (GC 4560) (Escherichia coli) | MIC Coagulase Negative Staphylococcus (GC 4547) (Staphylococcus sp.) | MIC Coagulase Negative Staphylococcus (GC 4548) (Staphylococcus sp.) | MIC Staphylococcus aureus (GC 3051) (Staphylococcus sp.) | MIC Staphylococcus aureus (GC 4545) (Staphylococcus sp.) | MIC Staphylococcus haemolyticus (GC 4546) (Staphylococcus sp.) | MIC Staphylococcus aureus (GC 3051) (Staphylococcus sp.; strain GC 3051) | MIC Staphylococcus aureus (GC 4545) (Staphylococcus sp.; strain GC 4545) | MIC Staphylococcus haemolyticus (GC 4546) (Staphylococcus sp.; strain GC 4546) | MIC Coagulase Negative Staphylococcus (GC 4547) (Staphylococcus sp.; strain GC 4547) | MIC Coagulase Negative Staphylococcus (GC 4548) (Staphylococcus sp.; strain GC 4548) | MIC Streptococcus agalactiae (GC 4564) (Streptococcus sp.)
64 µg/mL: MIC Enterococcus faecalis (GC 3059) (Enterococcus sp.)
1 µg/mL: MIC Streptococcus pneumoniae (ATCC 6301) (Streptococcus sp.) | MIC Streptococcus pneumoniae (GC 1894) (Streptococcus sp.)
